# ± gives the expanded uncertainty stated by the source.
# Details: Liquid, flow method with low res time
structure (smiles),measurement,setting,value
"CC(O)COC(C)(C)C (stereo unspecified) [1-(1,1-dimethylethoxy)-2-propanol]",vapor or sublimation pressure,450.5 K,200.9 ± 8.1 kPa
same,vapor or sublimation pressure,472.9 K,337.8 ± 14 kPa
same,vapor or sublimation pressure,510.2 K,689.5 ± 28 kPa
same,vapor or sublimation pressure,553.3 K,1380 ± 55 kPa
same,vapor or sublimation pressure,592.7 K,2414 ± 97 kPa
same,vapor or sublimation pressure,597.5 K,2586 ± 100 kPa
same,vapor or sublimation pressure,598.5 K,2668 ± 110 kPa
same,Critical pressure,,2720 ± 110 kPa
same,Critical temperature,,600.7 ± 4 K
CCCCCCCCCCCCS [1-dodecanethiol],vapor or sublimation pressure,544.5 K,89.98 ± 3.6 kPa
same,vapor or sublimation pressure,577.8 K,178.6 ± 7.2 kPa
same,vapor or sublimation pressure,614.7 K,348.2 ± 14 kPa
same,vapor or sublimation pressure,659.9 K,694.3 ± 28 kPa
same,vapor or sublimation pressure,688.6 K,1039 ± 42 kPa
same,vapor or sublimation pressure,712.4 K,1384 ± 55 kPa
same,vapor or sublimation pressure,729.8 K,1726 ± 69 kPa
same,Critical pressure,,1810 ± 70 kPa
same,Critical temperature,,733.7 ± 4 K
CSc1ccccc1 [1-phenyl-1-thiaethane],vapor or sublimation pressure,463.7 K,90.87 ± 3.7 kPa
same,vapor or sublimation pressure,492.1 K,177.3 ± 7.1 kPa
same,vapor or sublimation pressure,526.3 K,354.1 ± 14 kPa
same,vapor or sublimation pressure,566.1 K,696.4 ± 28 kPa
same,vapor or sublimation pressure,613.6 K,1383 ± 55 kPa
same,vapor or sublimation pressure,671.1 K,2765 ± 110 kPa
same,vapor or sublimation pressure,691.7 K,3454 ± 140 kPa
same,vapor or sublimation pressure,699.9 K,3799 ± 150 kPa
same,vapor or sublimation pressure,704.3 K,3964 ± 160 kPa
same,Critical pressure,,4050 ± 160 kPa
same,Critical temperature,,705.9 ± 4 K
OCCc1ccccc1 [2-phenylethanol],vapor or sublimation pressure,488.7 K,91.7 ± 3.7 kPa
same,vapor or sublimation pressure,515.5 K,174.9 ± 7 kPa
same,vapor or sublimation pressure,547.5 K,340.6 ± 14 kPa
same,vapor or sublimation pressure,587.4 K,692.9 ± 28 kPa
same,vapor or sublimation pressure,634.4 K,1382 ± 55 kPa
same,vapor or sublimation pressure,689.8 K,2762 ± 110 kPa
same,vapor or sublimation pressure,711.2 K,3451 ± 140 kPa
same,vapor or sublimation pressure,719.2 K,3793 ± 150 kPa
same,vapor or sublimation pressure,722.5 K,3966 ± 160 kPa
same,Critical pressure,,3990 ± 160 kPa
same,Critical temperature,,723.5 ± 4 K
C=CCO [2-propenol],vapor or sublimation pressure,438.1 K,759.8 ± 82 kPa
same,vapor or sublimation pressure,465.2 K,1383 ± 150 kPa
same,vapor or sublimation pressure,498.5 K,2595 ± 280 kPa
same,vapor or sublimation pressure,531.5 K,4482 ± 480 kPa
same,vapor or sublimation pressure,545.4 K,5516 ± 590 kPa
same,vapor or sublimation pressure,546.5 K,5599 ± 600 kPa
same,Critical pressure,,5640 ± 330 kPa
same,Critical temperature,,547.1 ± 4 K
c1ccc2ccccc2c1 [naphthalene],vapor or sublimation pressure,502.2 K,128.9 ± 5.2 kPa
same,vapor or sublimation pressure,552.2 K,337.8 ± 14 kPa
same,vapor or sublimation pressure,646.6 K,1338 ± 54 kPa
same,vapor or sublimation pressure,731.8 K,3445 ± 140 kPa
same,vapor or sublimation pressure,741.5 K,3793 ± 150 kPa
same,vapor or sublimation pressure,745.9 K,3958 ± 160 kPa
same,Critical pressure,,4130 ± 170 kPa
same,Critical temperature,,750 ± 4 K
CCCCCCCCCCCCCCCCCCCCCCCCCCCCCC [triacontane],vapor or sublimation pressure,713.5 K,82.32 ± 3.3 kPa
same,vapor or sublimation pressure,737.8 K,127.8 ± 5.1 kPa
same,vapor or sublimation pressure,761.2 K,190.2 ± 7.6 kPa
same,vapor or sublimation pressure,786 K,282.4 ± 11 kPa
same,vapor or sublimation pressure,809.6 K,414.1 ± 17 kPa

# Source: the NIST ThermoML archive (doi:10.1021/je060088h)
